# Measured values from patent US20240182492A1, “AZAHETEROARYL COMPOUND, PREPARATION METHOD THEREFOR, AND APPLICATION THEREOF” (SHANGHAI BLUERAY BIOPHARMA CO., LTD., priority 2021, published 2024).
# Key:
# [1] = test system: B-cell non-Hodgkin lymphoma cells KARPAS-422; assay: Cell proliferation analysis, KARPAS-422, 13 days, CellTiter-Glo; assay type: cell-based, Human
# Experimental: Example 55: Cell Proliferation Analysis
# Human B-cell non-Hodgkin lymphoma cells KARPAS-422 S were cultured in culture flasks using standard cell culture conditions. The culture medium contains 15% fetal bovine serum (FBS, Invitrogen, product number 10099-141), 1% penicillin/streptomycin solution (P/S) RPMI-1640 (Invitrogen, product number 11875), and the culture flask is placed and cultured in a sterile incubator at 37° C., 95% relative humidity, and 5% CO2. In order to detect the effect of PRC2 inhibitors on cell proliferation, cells in the exponential growth phase were seeded into 96-well plates (Corning, product number 3904) at a density of 1×10^4 cells/well, and 100 μL of medium was added to each well. Subsequently, the compounds disclosed herein at different concentrations were added to the wells seeded with cells (9 concentration gradients were set for each compound, and the highest detection concentration was 10 μM, 3-fold gradient dilution), and 2 repeats in parallel were set for each treatment concentration. The final concentration of DMSO is 0.5%. Then the number of surviving cells was counted with Vi-CELL (Beckman Coulter) every 3-4 days. The cells counted each time were seeded into a new 96-well plate at the same density (1×10^4 cells/well). The wells were supplemented with fresh medium to 100 μL, and different concentrations of the compound were added at the same time. The cells were cultured until the 13th day, on which 100 μL of CellTiter-Glo (CellTiter-GloCellTiter-GloCellTiter-GloCTG) (Promega, Product No. G7573) was added to each well. The plate was placed for 10-20 minutes in the dark at room temperature, and Molecular Devices and SpectraMax i3X were used to read the luminous signal. The data were fitted to a dose-response curve using GraphPad prisim5 and the IC50 values of the tested compounds were obtained.
# [2] = target: T1, EED protein (full-length, His6 tag) binding to H3K27me3 polypeptide (Homo sapiens, UniProt O75530); assay: AlphaScreen evaluation of blocking the binding of EED to H3K27Me3; settings: EED / biotinylated H3K27me3 peptide competition
# T1 construct: The full-length EED protein (441 amino acids) with His6 tag
# Experimental: Example 53: Evaluation of the Effect of the Compound in Blocking the Binding of EED to H3K27Me3 by AlphaScreen (a-Screening) Method
# First, compound solutions with different concentration gradients are prepared. Compound powder is dissolved in DMSO to form mother liquor. 1.5 μL of the compound mother liquor is taken to 198.5 μL reaction buffer (25 mM HEPES (pH 8.0), 50 mM NaCl, 0.015% Tween 20, 0.5% BSA) and the solution is mix uniformly, and then 3-fold gradient dilution is performed with the above buffer containing 0.75% DMSO. 9 different test concentrations are set for the same compound. 5 μL of compounds with different concentration gradients was taken to ProxiPlate-384 Plus, White detection plate (PerkinElmer, 6008280), and 2 parallel replicates are set for each concentration gradient.
# Next, a binding blocking reaction is performed. The full-length EED protein (441 amino acids) with His6 tag is diluted to 60 nM with the above buffer, and the biotinylated polypeptide fragment H3K27me3 (amino acids 19-33) (Biotinylated-H3K27me3) is diluted to 75 nM with the same buffer. 5 μL of 75 nM peptide fragments and 5 μL of 60 nM protein are transferred to the testing wells containing the compound respectively. The testing plate is sealed with a film, and is incubated for 30 minutes at room temperature.
# Finally, AlphaScreen method is used for detection. Before use, nickel chelate acceptor beads and streptavidin donor beads (Perkin Elmer, product number 6760619M) are mixed into the above reaction buffer at a ratio of 1:1, and then 5 μL of the above pre-mixed testing solution is added to each testing well. The final concentration of the donor beads and acceptor beads is 5 μg/mL. The testing plate is covered with tin foil and placed at room temperature in the dark for 1 hour. Signals are read using an AlphaScreen detector on a Spectra max i3. The AlphaScreen signal is normalized according to the readings obtained from the positive control (maximum signal control) and negative control (minimum signal control) to give the inhibition rate of different concentrations of the compound. After that, non-linear regression analysis was performed with GraphPad Prism 5, and dose-response equation Y=Bottom+(Top−Bottom)/(1+10^((Log IC50−X)*HillSlope)) is used to make an inhibition curve, obtaining the IC50 value of each compound. […]
# [3] = test system: trimethylation level of histone H3K27 in G401 cells; assay: ELISA (H3K27 trimethylation) analysis in G401 cells; assay type: cell-based; settings: H3K27me3 normalized by H3
# Experimental: Example 54: ELISA (H3K27 Trimethylation) Analysis
# Representative compounds of the present disclosure are diluted in DMSO with 3-fold gradient, and 10 concentration gradients are tested per compound. The maximum testing concentration is 10 μM. The compound is diluted 200-fold into G401 cells cultured in 96-well plates (the final concentration of DMSO is 0.5%). After the cells are cultured for 72 hours, the trimethylation level of histone H3K27 is detected by ELISA method.
# Histone extraction: compound-treated cells in a 96-well plate are washed 3 times with 1×PBS (10×PBS buffer (80 g NaCl (Sigma, Product No. S3014), 2 g KCl (Sigma, Product No. 60128), 14.4 g Na2HAPO4 (Sigma, Product No. S5136) and 2.4 g KH2PO4 (Sigma, Product No. P9791) are added to 1 L water, pH to 7.4), and 100 μL of 0.4N HCl is added to each well. The 96-well plate is placed at 4° C. and gently shaken for 2 hours to lyse the cells. The cell lysate is then neutralized with 80 μL of neutralization buffer (0.5M disodium hydrogen phosphate, pH 12.5, 2.5 mM DTT; 1% cocktail (Sigma, Product No. P8340) (mixing the cell lysate and neutralization buffer thoroughly).
# ELISA detection method: the cell lysates are transferred in parallel to two 384-well assay plates (PerkinElmer, OptiPlate-384HB, Product No. 6007290). One plate is used to detect the trimethylation level of H3K27, and the other plate is used to measure the level of H3. PBS is adjusted to a final volume of 50 μL/well. The wells are coated overnight at 4° C. On the next day, the solution in the wells was discarded. TBST buffer (1 xTBS (10×TBS: 24.2 g Tris (Sigma, Product No. T6066) and 80 g NaCl (Sigma, Product No. S3014) are added to 1 L water, and pH is adjusted to 7.6 with HCl) and 0.1% Tween-20) is used to wash it 5 times, and the water is dried on absorbent papers. 70 μL of blocking buffer (TBST, 5% BSA) is added to the coated reaction wells, and the wells are incubated for 1 hour at room temperature. The blocking buffer was discarded, and the primary antibody is added (30 μL/well). The required primary antibodies are diluted with blocking buffer, and the dilution ratios were as follows: anti-H3K27me3 antibody (Cell Signaling Technology, Product No. 9733), 1:2000 dilution; anti-H3 antibody (Cell Signaling Technology, Product No. 4499), 1:10000 dilution. After adding the primary antibody, the wells are incubated at room temperature for 1 hour. After washing with TBST for 5 times, the water are dried. The secondary antibody (30 μL/well) is added to each reaction well, and the wells are incubated at room temperature for 1 hour. Secondary antibody (anti-rabbit antibody (Jackson ImmunoResearch, Product No. 111-035-003)) is used after dilution 2000-fold in blocking buffer. After 1 hour, it is washed with TBST and dried. 30 μL of ECL substrate (Pierce, Product No. 34080) is added to each well and centrifuged for 30 seconds at 2000 rpm. Signal of each sample is detected using Molecular Devices, SpectraMax. Data processing: H3K27 methylation readings are first normalized by H3 signal. 0.500 DM8)-treated sample is used as a control, and the inhibition percentage of the compound is calculated. The data is fitted to a dose-response curve using the GraphPad prisim5 program, obtaining the IC50 values of the test compounds.
# [4] = Homo sapiens, KARPAS-422, 312 h, Karpas-422, 13 days
# T1 sequence (O75530 whole entry): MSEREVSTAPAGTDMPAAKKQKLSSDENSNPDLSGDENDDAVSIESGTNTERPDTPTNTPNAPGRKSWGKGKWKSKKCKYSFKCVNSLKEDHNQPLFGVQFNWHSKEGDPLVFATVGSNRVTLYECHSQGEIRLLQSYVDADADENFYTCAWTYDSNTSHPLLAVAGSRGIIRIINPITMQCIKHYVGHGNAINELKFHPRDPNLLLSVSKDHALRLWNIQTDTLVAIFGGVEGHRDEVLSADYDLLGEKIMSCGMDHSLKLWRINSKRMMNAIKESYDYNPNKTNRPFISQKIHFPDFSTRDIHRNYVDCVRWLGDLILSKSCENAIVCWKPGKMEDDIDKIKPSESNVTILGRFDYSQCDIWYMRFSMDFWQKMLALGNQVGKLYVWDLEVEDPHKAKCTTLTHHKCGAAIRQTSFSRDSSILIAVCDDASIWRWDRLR
SMILES,"IC50 [1, 4]",IC50 [2],"IC50 ([3]; Homo sapiens, G-401, 72 h)","IC50 ([1]; Karpas-422, 13 days)",IC50 ([3]; 72 hours),"IC50 ([1]; Homo sapiens, KARPAS-422, 312 h)","IC50 ([3]; Homo sapiens, G-401, 72 hours)"
"OC(CF)(CF)c1ccc(-c2cnc(NCc3c(F)ccc4c3CCO4)n3cnnc23)c2ncnn12 [1,3-difluoro-2-[8-(5-{[(5-fluoro-2,3-dihydro-1-benzofuran-4-yl)methyl]amino]-[1,2,4]triazolo[4,3-c]pyrimidin-8-yl)-[1,2,4]triazol[1,5-a]pyridin-5-yl]propan-2-ol]",0.0041 µM,0.0069 µM,0.0011 µM,,,,
"OC1(c2ccc(-c3cnc(NCc4c(F)ccc5c4CCO5)n4cnnc34)c3ncnn23)CCC1 [1-[8-(5-{[(5-fluoro-2,3-dihydro-1-benzofuran-4-yl)methyl]amino]-[1,2,4]triazolo[4,3-c]pyrimidin-8-yl)-[1,2,4]triazolo[1,5-a]pyridin-5-yl]cyclobutan-1-ol]",0.0016 µM,0.0055 µM,0.0003 µM,,,,
"CC(O)(c1ccc(-c2cnc(NCc3c(F)ccc4c3CCO4)n3cnnc23)c2ncnn12)C(F)F (stereo not drawn) [1,1-difluoro-2-(8-(5-(((5-fluoro-2,3-dihydrobenzofuran-4-yl)methyl)amino)-[1,2,4]triazolo[4,3-c]pyrimidin-8-yl)-[1,2,4]triazolo[1,5-a]pyridin-5-yl)propan-2-ol]",0.0048 µM,0.0051 µM,0.0015 µM,,,,
"CCC(O)c1ccc(-c2cnc(NCc3c(F)ccc4c3CCO4)n3cnnc23)c2ncnn12 (single isomer, unassigned) [Compound f]",,0.0066 µM,,0.0054 µM,0.0013 µM,,
"CC(O)(CF)c1ccc(-c2cnc(NCc3c(F)ccc4c3CCO4)n3cnnc23)c2ncnn12 (single isomer, unassigned) [Compound g]",0.0015 µM,0.004 µM,0.0006 µM,,,,
"Cc1cc(-c2cnc(NCc3c(F)ccc4c3CCO4)n3cnnc23)c2ncnn2c1C(C)(C)O [2-(8-(5-(((5-fluoro-2,3-dihydrobenzofuran-4-yl)methyl)amino)-[1,2,4]triazolo[4,3-c]pyrimidin-8-yl)-6-methyl-[1,2,4]triazolo[1,5-a]pyridin-5-yl)propan-2-ol]",0.0087 µM,0.0075 µM,0.0024 µM,,,,
"CC(O)(c1ccc(-c2cnc(NCc3c(F)ccc4c3CCO4)n3cnnc23)c2ncnn12)C(F)(F)F (single isomer, unassigned) [Compound d]",,0.0055 µM,,,,0.0087 µM,0.0047 µM
"Cc1nc2c(-c3cnc(NCc4c(F)ccc5c4CCO5)n4cnnc34)cnc(C(C)(C)O)n2n1 [2-(8-(5-(((5-fluoro-2,3-dihydrobenzofuran-4-yl)methyl)amino)-[1,2,4]triazolo[4,3-c]pyrimidin-8-yl)-2-methyl-[1,2,4]triazolo[1,5-c]pyrimidin-5-yl)propan-2-ol]",0.0065 µM,0.0084 µM,0.0006 µM,,,,
"OC(c1ccc(-c2cnc(NCc3c(F)ccc4c3CCO4)n3cnnc23)c2ncnn12)(C(F)F)C(F)F [1,1,3,3-tetrafluoro-2-(8-(5-(((5-fluoro-2,3-dihydrobenzofuran-4-yl)methyl)amino)-[1,2,4]triazolo[4,3-c]pyrimidin-8-yl)-[1,2,4]triazolo[1,5-a]pyridin-5-yl)propan-2-ol]",0.0049 µM,0.003 µM,0.0012 µM,,,,
"CCC(C)(O)c1ccc(-c2cnc(NCc3c(F)ccc4c3CCO4)n3cnnc23)c2ncnn12 (single isomer, unassigned) [Compound b]",,0.0089 µM,,0.0079 µM,0.0017 µM,,
"CC(O)(c1ccc(-c2cnc(NCc3c(F)ccc4c3CCO4)n3cnnc23)c2ncnn12)C(F)(F)F (stereo not drawn) [1,1,1-trifluoro-2-(8-(5-(((5-fluoro-2,3-dihydrobenzofuran-4-yl)methyl)amino)-[1,2,4]triazolo[4,3-c]pyrimidin-8-yl)-[1,2,4]triazolo[1,5-a]pyridin-5-yl)propan-2-ol]",0.0088 µM,0.0048 µM,0.0019 µM,,,,
"CCC(C)(O)c1ccc(-c2cnc(NCc3c(F)ccc4c3CCO4)n3cnnc23)c2ncnn12 (stereo not drawn) [2-(8-(5-(((5-fluoro-2,3-dihydrobenzofuran-4-yl)methyl)amino)-[1,2,4]triazolo[4,3-c]pyrimidin-8-yl)-[1,2,4]triazolo[1,5-a]pyridin-5-yl)butan-2-ol]",0.0052 µM,0.0075 µM,0.0021 µM,,,,
